Data published in article PMC9503459, “Antifungal Activity, Structural Stability, and Immunomodulatory Effects on Human Immune Cells of Defensin from the Lentil Lens culinaris” (Membranes, 2022).
Values joined by “and” are separate entries in the source; they are usually repeats but may differ in a detail not shown here. Identical values can stand only once. No end group written: not given here.

How the values were obtained:
[1] = test system: primary CD14+ blood monocytes; experiment: Cytokine response by multiplex xMAP, monocytes; type: cell-based, human; conditions: 2 µM, 24 h
Description: Colorectal adenocarcinoma Caco-2 cell line (ATCC HTB-37) was cultured in complete DMEM/F12 (1:1) medium containing 10% fetal bovine serum (FBS, Gibco) and 1X antibiotic-antimycotic solution (1XAAS, Invitrogen, Waltham, MA, USA). The acute monocytic leukemia THP-1 line (ATCC TIB-202) was cultured in complete RPMI-1640 medium, containing 10% FBS, 1XAAS, and […]. THP-1 cells were differentiated into pro-inflammatory macrophages (Mφ1) with phorbol 12-myristate 13-acetate (Sigma-Aldrich) for 24 h and subsequently polarized with lipopolysaccharide from E. coli (Sigma-Aldrich) and rhIFN-γ (Sigma-Aldrich) for another 48 h according to previously reported protocol. All cells were cultured in a humidified CO2 incubator (5% CO2, 37 °C). Primary peripheral blood mononuclear cells (PBMCs) collected from a healthy donor were purchased from American Type Culture Collection (ATCC PCS-800-011). CD4^+ T-helper and CD8^+ T cytotoxic cells were isolated from PBMCs by magnetic separation with mouse anti-human CD4-PE (clone 13B8.2, Beckman Coulter Diagnostics, Pasadena, CA, USA) and CD8-PE (clone REA734, Miltenyi Biotec, Bergisch Gladbach, Germany), Anti-PE MicroBeads (Miltenyi Biotec), and LS Separation Columns (Miltenyi Biotec). Isolated CD4^+ and CD8^+ cells were expanded separately with Dynabeads™ Human T-Expander CD3/CD28 (Gibco, Waltham, MA, USA) in RPMI-1640 supplemented with 10% FBS, 1XAAS and 100 U/mL rh-IL-2 (Gibco). Regulatory CD4^+ FoxP3^+ T cells (Tregs) were isolated from PBMCs by magnetic separation with CD4^+CD25^+ Regulatory T Cell Isolation Kit, human (Miltenyi Biotec). Primary CD14^+ blood monocytes were isolated from PBMCs by adherence according to standard technique. Monocyte-derived mature dendritic cells (moDCs) were obtained from CD14^+ blood monocytes according to the previously reported protocol. Briefly, blood monocytes were incubated in complete RPMI-1640 medium, containing 10% FBS, 1XAAS, 800 U/mL rhGM-CSF (Sci-Store, Russia, Moscow) and 500 U/mL rhIL-4 (Sci-Store) for 3 days. Fresh complete RPMI-1640 medium with rhGM-CSF and rhIL-4 was added to the culture on day 3. On day 5, fresh complete RPMI-1640 containing 100 U/mL rhTNF-α (Sigma) as well as 800 U/mL rhGM-CSF and 500 U/mL rhIL-4 was added and the culture was incubated for another 4 days until full maturation.
Caco-2 cells were seeded into the wells of a 48-well plate, coated with 0.1% bovine collagen (Sigma-Aldrich) for 24 h, 3 weeks before the experiment with complete DMEM/F12 (1:1) medium renewal every 2–3 days. Monocytes, moDCs, CD4^+ T-helper and CD8^+ T cytotoxic cells, Mφ1, and Regulatory CD4^+ FoxP3^+ T cells were seeded into the wells of 48-well plates in the complete RPMI-1640 medium supplemented with 10% Human AB serum (HABS, Capricorn Scientific, Ebsdorfergrund, Germany) and 1XAAS 24 h prior to the experiment; medium in Caco-2-containing wells was also replaced with the same medium. After 24 h, half of the medium in each well was replaced by fresh complete RPMI-1640 medium with 10% HABS, supplemented with 4 µM of Lc-def for the sample wells or fresh medium alone for the control wells. Cell cultures were kept in CO2-incubator (5% CO2, 37 °C) for another 24 h. Culture supernatants were collected 24 h later and stored at −70 °C degrees less than one month prior to the analytes assessment. […]

[2] = test system: clinical isolate of Candida albicans (v47a3); experiment: Antifungal microdilution assay, C. albicans; type: cell-based; conditions: 24 h; for inhibition of the growth: C. albicans
Description: The clinical isolates of Candida albicans (v47a3), C. krusei (225/2) and C. glabrata (252/2) were collected from patients with human immunodeficiency virus (HIV) infection and provided by G.N. Gabrichevsky Research Institute for Epidemiology and Microbiology (Moscow, Russia). Strains stocks were kept at −70 ℃ in 10% nonfat milk with 10% glycerol.
Antifungal susceptibility tests were performed by the microdilution method using 96-well microplates. Yeast cells in stock were inoculated onto modified YPD (yeast extract 5 g/L, peptone 10 g/L, glucose 10 g/L) agar plates, and incubated for 24 h at 37 ℃. After replating, cells were cultured in modified YPD broth at 37 ℃ to optical density 1.0 at 540 nm. Further, yeast cells in modified YPD broth at concentration of 5 × 10^4 cells/mL were mixed with equal volumes of serial two-fold dilutions of the peptide in water which started at the highest peptide concentration of 200 µM. Final peptide concentrations in the wells were 100, 50, 25, 12.5, 6.25, 3.125, and 1.56 μM. Controls without defensin were also tested. Plates were incubated at 30 ℃ during 24 h. Yeast growth was estimated using inverted microscope as well as by measuring the optical density at 540 nm. Percentage of growth inhibition was defined as: growth inhibition (%) = ((Acontrol − Asample)/Acontrol) × 100%. All of the experiments were performed twice in triplicate. The t-test was performed to study the statistical difference (p-value) between the means of controls and samples with different peptide concentrations. The experiment with lentil Lens culinaris lipid transfer protein Lc-LTP2 was carried out for comparison.

## Lc-def: defensin from lentil Lens culinaris seeds (UniProt:B3F051), recombinant, overexpressed in Escherichia coli (KTCENLSDSFKGPCIPDGNCNKHCKEKEHLLSGRCRDDFRCWCTRNC; disulfide (positions not given here); ends not checked; also: disulfide bonds present, pairing not given here; UniProt B3F051 28-74, looked up)
[1]
  EGF: 11.56 pg/mL
  Eotaxin: <3.23↓ pg/ml
  FGF-2: 44.46 pg/mL
  FLT-3L: 1.04 pg/mL
  Fractalkine: <23.19↓ pg/ml
  G-CSF: 22.68 pg/mL
  GM-CSF: 3.49 pg/mL
  GROa: 777.01 pg/mL
  IFNa2: 21.43 pg/mL
  IFNg: <1.99↓ pg/ml
  IL-1RA: 10.83 pg/mL
  IL-1a: 17.69 pg/mL
  IL-1b: <18.72↓ pg/ml
  IL-2: 2.62 pg/mL
  IL-3: <0.48↓ pg/ml
  IL-4: 0.58 pg/mL
  IL-5: <0.24↓ pg/ml
  IL-6: 378 pg/mL and 378.12 pg/mL
  IL-7: <0.33↓ pg/ml
  IL-8: 5662 pg/mL
  IL-9: 1.6 pg/mL
  IL-10: 8.4 pg/mL
  IL-12 (p40): 19.56 pg/mL
  IL-12 (p70): 2.22 pg/mL
  IL-13: 15.11 pg/mL
  IL-15: 3.53 pg/mL
  IL-17A: 2.6 pg/mL
  IL-17E/IL-25: <20.59↓ pg/ml
  IL-17F: <16.96↓ pg/ml
  IL-18: 2.04 pg/mL
  IL-22: 17.03 pg/mL
  IL-27: 60.93 pg/mL
  IP-10: 529.41 pg/mL
  M-GSF: 38.29 pg/mL
  MCP-1: 5545 pg/mL
  MCP-3: 326 pg/mL and 326.33 pg/mL
  MDC: 995.8 pg/mL
  MIG: 1406 pg/mL
  MIP-1a: 14.98 pg/mL
  MIP-1b: 42.32 pg/mL
  PDGF-AB/BB: 943.35 pg/mL
  RANTES: 5.41 pg/mL
  TGF-a: 1.79 pg/mL
  TNFa: 27.51 pg/mL
  TNFb: 1.77 pg/mL
  VEGFa: 21.72 pg/mL
  sCD40L: 65.54 pg/mL
[2]; C. albicans clinical isolate, microdilution, modified YPD, 30 °C, OD540, twice in triplicate, read-out: concentration causing 50% growth inhibition
  IC50: 25 to 50 µM
[2]; 50 μM peptide
  inhibition of the growth: approximately 80%
[2]; 100 μM peptide
  inhibition of the growth: < 100%
